This is an account of results in patent publication US10709705B2, “Aminopyrimidines as ALK inhibitors” (THE REGENTS OF THE UNIVERSITY OF MICHIGAN, priority 2016, dated 2020).

For one data set, the system named is H3122 cells (EML4-ALK). As to the kind of experiment: Cell growth inhibition assay (WST-8), H3122. In kind it is cell-based. The settings on record: Homo sapiens, NCI-H3122, read-out: H3122 (nM) (EML4-ALK), 50% of cell growth inhibition (IC50), WST-8, versus DMSO control. As to the method: (§1) H3122 and Kappas-299 cells were purchased from American Type Culture Collection (Manassas, Va., USA) and were used within 2 months after initiating from original stocks. All cell lines were cultured as recommended. For cell growth inhibition assay, cells were treated with different concentrations of the tested compounds, diluted from stock to culture media containing a 0.2% DMSO as the final concentration. Cell viability was determined using the WST-8 cell proliferation assay kit (Dojindo Molecular Technologies) according to manufacturer's instructions. Three independent experiments in triplicates were performed.

The target of data set [1] is T1, wild-type human ALK protein (cytoplasmic domain, amino acid 1058-1620) (Homo sapiens, UniProt Q9UM73).
T1 construct: The cytoplasmic domain (amino acid 1058-1620) of wild-type human ALK protein; purchased Carna Biosciences, Inc (Japan)
T1 sequence (Q9UM73 1058-1620): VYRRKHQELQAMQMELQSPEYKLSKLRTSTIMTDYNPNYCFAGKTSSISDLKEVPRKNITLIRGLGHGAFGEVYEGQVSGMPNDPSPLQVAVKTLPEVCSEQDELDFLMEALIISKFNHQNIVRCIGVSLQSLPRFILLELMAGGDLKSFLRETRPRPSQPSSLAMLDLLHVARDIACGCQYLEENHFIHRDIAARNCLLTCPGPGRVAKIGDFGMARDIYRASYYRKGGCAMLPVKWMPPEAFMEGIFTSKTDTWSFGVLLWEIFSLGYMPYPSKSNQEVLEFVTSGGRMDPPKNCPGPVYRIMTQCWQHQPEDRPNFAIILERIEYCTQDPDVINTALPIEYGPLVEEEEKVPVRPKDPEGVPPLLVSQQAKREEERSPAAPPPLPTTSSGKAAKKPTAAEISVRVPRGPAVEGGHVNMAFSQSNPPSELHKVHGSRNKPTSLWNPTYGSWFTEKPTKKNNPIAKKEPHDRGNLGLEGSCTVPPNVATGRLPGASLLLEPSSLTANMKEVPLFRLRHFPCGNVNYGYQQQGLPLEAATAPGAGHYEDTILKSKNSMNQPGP
Briefly: Wild-type ALK kinase inhibition, Lance TR-FRET assay. In kind it is biochemical. The conditions noted are these: Table 4; target not given; Cpd. No. 5 value equals WT ALK IC50 of Table 5; read-out: Inhibitory activity. As for the experimental part:
The cytoplasmic domain (amino acid 1058-1620) of wild-type human ALK protein expressed as N-terminal GST-fusion protein was purchased from Carna Biosciences, Inc (Japan). Mutated ALK proteins were expressed in SF9 insect cells with N-terminal tags cleaved after purification. Kinase activities of all enzymes were assessed using a Lance® TR-FRET assay kit from Perkin Elmer Life Sciences (Waltham, Mass.). 2.5 μL of compound solution and 5 μL of protein solution were added into a black low volume 384 well microtiter plate which was incubated for 30 minutes with gentle shaking at room temperature, followed by adding 2.5 μL of fluorescently labeled peptide substrate (ULight™-IRS-1 (Tyr983) Peptide) and ATP mixture solution. The kinase reaction was performed in 50 mM HEPES (pH 7.5) with 1 mM EGTA, 1 mM MgCl2, and 2 mM DTT, 0.01% Tween-20 added right before the assay. Final concentrations of ATP, substrates, and DMSO were 100 μM, 20 nM, and 0.5%, respectively. […] Final ALK concentrations were 1 nM, 1 nM, InM, 128 nM, 2 nM, and 4 nM for wild-type, F1174L, L1196M, S1206Y, G1269A, and G1202R, respectively. The reaction was allowed to perform for 90 minutes in dark with gentle shaking at room temperature after which 10 μL of 20 mM EDTA and 2 nM Eu-W1024 anti-phosphotyrosine antibody (PT66) mixture solution in the detection buffer from the manufacturer was added to terminate the reaction and detect the phosphorylation of the peptide substrate. The final mixture was incubated in the dark for 1 hour before the plate was read on a Tecan Infinite M-1000 multi-mode plate reader (Tecan, Durham N.C.) with an excitation wavelength of 320 nm. Emission intensities were measured at both 620 and 665 nm with the intensity ratio between 665 and 620 nm corresponding to the peptide substrate phosphorylation. IC50 values of inhibitors were obtained by fitting the ratio of 665/620 nm vs inhibitor concentrations in a sigmoidal dose-response curve (variable slope) with a non-linear regression.

Data set [2] has as its system Kappas-299 cells (NPM-ALK). Briefly: Cell growth inhibition assay (WST-8), Kappas-299. In kind it is cell-based. The conditions noted are these: read-out: Kappas-299 (nM) (NPM-ALK), 50% of cell growth inhibition (IC50), WST-8, versus DMSO control. As for the experimental part: as §1
In data set [3] the test system is Human lymphoma cells, KARPAS 299 xenograft. As to the kind of experiment: KARPAS 299 xenograft tumor growth in SCID mice. In kind it is in vivo. The conditions noted are these: given orally, once daily for 3 weeks, FIG. 1. As for the experimental part: Cpd. Nos. 5 and 6 were dissolved in a solution of 98% PEG200: 2% TPGS (Sigma).
Human lymphoma cells, KARPAS 299 were maintained at 37° C., 95% air, 5% carbon dioxide in RPMI 1640 medium supplemented with 10% Fetal Bovine Serum, 100 units/ml of penicillin and 100 units/ml of streptomycin (GIBCO™, Invitrogen Corp.) and passaged twice weekly.
Tumor cells for xenografts were washed twice in PBS, and re-suspended in an ice cold mixture of 1:1 PBS and Matrigel (BD Biosciences, Invitrogen Corp.) for a final Matrigel protein concentration of 5 mg/ml. Cells at 5×10^6 cells in 0.1 ml were injected subcutaneously (s.c.) into the flank region of each mouse. All tumors were inoculated into SCID mice (strain:236 C.B-17 SCID, Charles River).
The size of tumors growing in the mice was measured in two dimensions using calipers. Tumor volume (mm^3)=(AxB^2)/2 where A and B are the tumor length and width (in mm), respectively. During treatment, tumor volume and body weight were measured three times a week. After the treatment was stopped, tumor volume and body weight was measured at least once a week.
Tumors were not allowed to exceed 10% of the animal's total body weight. If an animal had two or more tumors the total weight of all tumors were not allowed to exceed 10% of the animal's total body weight. […]

Data set [4] in a line: Pharmacokinetics in SD rats. In kind it is in vivo. The settings on record: 10 mg/kg, Table 8 (SD rats), PO 10 mg/kg. As for the experimental part:
Routine pharmacokinetics studies were performed for Cpd. No. 5 in SD rats and beagle dogs.

On to `Cc1cc(Nc2ncc(Cl)c(Nc3ccccc3S(=O)(=O)C(C)C)n2)c(OC(C)C)cc1C1=CC(C)(C)NC(C)(C)C1` [compound 2, 5-chloro-N2-(2-isopropoxy-5-methyl-4-(2,2,6,6-tetramethyl-1,2,3,6-tetrahydropyridin-4-yl)phenyl)-N4-(2-(isopropylsulfonyl)phenyl)pyrimidine-2,4-diamine], for which the IC50 with H3122 cells (EML4-ALK) is 132 nM; in data set [1], 4.4 nM; in data set [2] it was 39 nM.

For the molecule `Cc1cc(Nc2ncc(Cl)c(Nc3ccccc3S(=O)(=O)C(C)C)n2)c(OC(C)C)cc1C1=CCN(C2COC2)CC1` [compound 6, 5-chloro-N2-(2-isopropoxy-5-methyl-4-(1-(oxetan-3-yl)-1,2,3,6-tetrahydropyridin-4-yl)phenyl)-N4-(2-(isopropylsulfonyl)phenyl)pyrimidine-2,4-diamine], in data set [3], the “tumor growth in the KARPAS 299 xenograph model” value is “inhibit tumor growth”.

With `Cc1cc(Nc2ncc(Cl)c(Nc3ccccc3S(=O)(=O)C(C)C)n2)c(OC(C)C)cc1C1=C[C@H](C2CC2)N[C@H](C2CC2)C1` (racemic) [compound 15, 5-chloro-N2-(4-((cis)-2,6-dicyclopropyl-1,2,3,6-tetrahydropyridin-4-yl)-2-isopropoxy-5-methylphenyl)-N4-(2-(isopropylsulfonyl)phenyl)pyrimidine-2,4-diamine], the IC50 in the data set on H3122 cells (EML4-ALK) was determined as 196 nM; in data set [1], 6.6 nM; in data set [2], 121 nM.

With `Cc1cc(Nc2ncc(Cl)c(Nc3ccccc3S(=O)(=O)C(C)C)n2)c(OC(C)C)cc1C1=CC(C)(C)N(C)C(C)(C)C1` [compound 1, 5-chloro-N2-(2-isopropoxy-5-methyl-4-(1,2,2,6,6-pentamethyl-1,2,3,6-tetrahydropyridin-4-yl)phenyl)-N4-(2-(isopropylsulfonyl)phenyl)pyrimidine-2,4-diamine], the results for the IC50 (in the data set on H3122 cells (EML4-ALK); in data set [1]; in data set [2]) were 92 nM, 1.8 nM and 30 nM, respectively.

As for `Cc1cc(Nc2ncc(Cl)c(Nc3ccccc3S(=O)(=O)C(C)C)n2)c(OC(C)C)cc1C1=C[C@H](C2CC2)N(C)[C@H](C2CC2)C1` (racemic) [compound 16, 5-chloro-N2-(4-((cis)-2,6-dicyclopropyl-1-methyl-1,2,3,6-tetrahydropyridin-4-yl)-2-isopropoxy-5-methylphenyl)-N4-(2-(isopropylsulfonyl)phenyl)pyrimidine-2,4-diamine], the IC50 with H3122 cells (EML4-ALK) amounted to 160 nM; in data set [1] it was 6.3 nM; in data set [2] it was 97.7 nM.

`Cc1cc(Nc2ncc(Cl)c(Nc3ccccc3S(=O)(=O)C(C)C)n2)c(OC(C)C)cc1C1=C[C@H](C)N[C@H](C)C1` (racemic) [compound 9, 5-chloro-N2-(4-((cis)-2,6-dimethyl-1,2,3,6-tetrahydropyridin-4-yl)-2-isopropoxy-5-methylphenyl)-N4-(2-(isopropylsulfonyl)phenyl)pyrimidine-2,4-diamine]: the values for the IC50 (with H3122 cells (EML4-ALK); in data set [1]; in data set [2]) were 54.9 nM, 1.1 nM and 35.9 nM, respectively.

Regarding `Cc1cc(Nc2ncc(Cl)c(Nc3ccccc3S(=O)(=O)C(C)C)n2)c(OC(C)C)cc1C1=CCN(C2CCOCC2)CC1` [Cpd. No. 5 (mesylate), 5-chloro-N2-(2-isopropoxy-5-methyl-4-(1-(tetrahydro-2H-pyran-4-yl)-1,2,3,6-tetrahydropyridin-4-yl)phenyl)-N4-(2-(isopropylsulfonyl)phenyl)pyrimidine-2,4-diamine], the half-life in data set [4] (Sprague-Dawley, rat, in vivo, po, read-out: t1/2 (h) PO (converted)) is 3.84 h. Besides, in data set [4], the “AUC0-t (ng · h/mL) PO” value stood at 958 ng·h/mL, the “AUC0-∞ (ng · h/mL) PO” value amounted to 971 ng·h/mL, the “Cmax(ng/mL) PO” value was 127 ng/mL and the “Tmax (h) PO” value came to 1.0 h.

In the case of `Cc1cc(Nc2ncc(Cl)c(Nc3ccccc3S(=O)(=O)C(C)C)n2)c(OC(C)C)cc1C1=C[C@H](C)N(C)[C@H](C)C1` (racemic) [compound 10, 5-chloro-N2-(2-isopropoxy-5-methyl-4-((cis)-1,2,6-trimethyl-1,2,3,6-tetrahydropyridin-4-yl)phenyl)-N4-(2-(isopropylsulfonyl)phenyl)pyrimidine-2,4-diamine], the results for the IC50 (in the data set with H3122 cells (EML4-ALK); in data set [1]; in data set [2]) were 54.9 nM, 0.98 nM and 37.5 nM, respectively.
